The text below walks through data of PMC7846450 (Science (New York, N.Y.), 2020).

For the assay, the target named is T1, Glk1 (Saccharomyces cerevisiae, UniProt P17709, F3S).
T1 sequence (P17709 1-500 F3S): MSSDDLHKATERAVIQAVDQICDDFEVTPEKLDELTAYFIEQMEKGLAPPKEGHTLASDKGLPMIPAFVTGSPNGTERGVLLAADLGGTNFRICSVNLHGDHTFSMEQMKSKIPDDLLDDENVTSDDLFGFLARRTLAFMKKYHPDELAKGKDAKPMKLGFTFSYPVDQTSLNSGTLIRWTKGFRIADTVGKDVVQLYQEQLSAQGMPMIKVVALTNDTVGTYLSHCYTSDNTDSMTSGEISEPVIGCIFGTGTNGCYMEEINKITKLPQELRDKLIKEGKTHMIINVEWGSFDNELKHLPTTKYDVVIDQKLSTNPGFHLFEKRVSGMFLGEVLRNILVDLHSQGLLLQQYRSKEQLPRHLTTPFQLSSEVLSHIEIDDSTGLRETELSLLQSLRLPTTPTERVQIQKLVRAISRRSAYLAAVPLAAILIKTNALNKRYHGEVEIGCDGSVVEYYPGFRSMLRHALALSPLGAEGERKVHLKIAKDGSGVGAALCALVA
Briefly: enzyme activity versus Glk1 concentration. It counts as biochemical. The settings on record: non-polymerizing mutant.

Regarding `OC[C@H]1OC(O)[C@H](O)[C@@H](O)[C@@H]1O` (stereo partly shown) [glucose], the “enzyme activity versus Glk1 concentration” value was “NonPol-Glk1 was enzymatically active but lacked the concentration-dependent inhibition of wild-type Glk1”.
